Structures can show the parent of a compound that is named as a salt.
Tests used:
NK-2 receptors [1] = assay: Inhibitory effect on bronchoconstriction caused by stimulation of NK-2 receptors (Nle10 neurokinin A (4-10)); assay type: in vivo, Hartley strain male guinea pigs
Procedure: There were used non-treated Hartley strain male guinea pigs and Hartley strain male guinea pigs received to active sensitization by subcutaneous administration of 30 mg/kg of ovalbumin 14 to 21 days before. The guinea pigs were anesthetized with pentobarbital and a tube was inserted into the trachea of each guinea pig. The guinea pigs were subjected to positive pressure respiration by means of an artificial respiratory apparatus at 10 ml/kg and 60 times/minute. The pressure in the edge of the tube in the trachea was measured as an indication of bronchoconstriction. Spontaneous respiration was inhibited by administering succinylcholine. The non-treated guinea pigs were repeatedly and intravenously injected with 2 nmol/kg of Nle10 neurokinin A (4-10), a specific stimulating agent for NK-2 receptors at intervals of 10 minutes. After the bronchoconstriction thus caused became stable, each drug was administered intravenously, orally or in duodenum. Nle10 neurokinin A (4-10) was intravenously injected again 3 minutes after the intravenous administration or 50 minutes after the oral administration or the administration in duodenum. The rate of inhibition by the drug was determined relative to the bronchoconstriction before the drug administration.

NK-2 receptors [2] = target: T1, NK-2 receptors (Rattus norvegicus, UniProt P16610); assay: Binding to NK-2 receptors (inhibition of radioactive 125I-neurokinin A binding); assay type: Fischer strain male rats (duodenum membranes); details: rat duodenum membrane; 125I-neurokinin A 1×10^-9 M; 90 min, room temperature; read-out: IC50 of drugs in binding of radioactive neurokinin A
T1 construct: Duodenums isolated from Fischer strain male rats were homogenized; from tissue; host or cells: duodenum membranes of male Fischer rats
T1 sequence (P16610 1-390): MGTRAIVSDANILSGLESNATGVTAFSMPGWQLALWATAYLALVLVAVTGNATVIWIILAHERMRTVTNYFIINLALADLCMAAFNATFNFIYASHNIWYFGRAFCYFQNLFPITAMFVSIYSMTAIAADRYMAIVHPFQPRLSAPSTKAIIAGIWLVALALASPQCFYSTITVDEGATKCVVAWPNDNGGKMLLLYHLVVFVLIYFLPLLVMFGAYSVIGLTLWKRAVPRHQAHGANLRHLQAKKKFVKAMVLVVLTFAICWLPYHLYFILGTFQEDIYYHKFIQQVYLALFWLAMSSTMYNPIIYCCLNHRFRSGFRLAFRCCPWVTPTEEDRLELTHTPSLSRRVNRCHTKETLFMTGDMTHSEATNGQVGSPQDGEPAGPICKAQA
Procedure: Duodenums isolated from Fischer strain male rats were homogenized in 50 mM Tris-hydrochloric acid buffer (pH 7.4) containing saccharose (100 mg/ml) and ethylenediaminetetraacetic acid (1 mM), and the resulting homogenate was centrifuged at 48,000 g and 4° C. for 20 minutes. The pellet thus obtained was washed three times with 10 times as much 50 mM Tris-hydrochloric acid buffer (pH 7.4) containing KCl (300 mM) and ethylenediaminetetraacetic acid (10 mM) as the pellet by volume, and the resulting membrane preparation was suspended in 10 times as much 50 mM Tris-hydrochloric acid buffer (pH 7.4) as the membrane preparation by volume and stored at -80° C. until use. The membrane preparation (20 mg/ml) was incubated together with a radioactive ligand ^125 I-neurokinin A (1×10^-9 M) at room temperature for 90 minutes in the presence of each drug or a solvent therefor in 50 mM Tris-hydrochloricacid buffer (pH 7.4) containing bovine serum albumin (10 mg/ml), bacitracin (40 μg/ml), leupeptin (4 μg/ml), chymostatin (50 μg/ml), antipain (1×10^-4 M) and MnCl2 (1 mM). […] Then, radioactivity in the filter was measured with a gamma counter. The 50% inhibitory concentration (IC50) of the drug was determined by means of a regression line by considering radioactivity in the presence of Nle10 neurokinin A (4-10) (3×10^-6 M) to be due to nonspecific binding, and measuring the rate of inhibition of specific binding by the drug by carrying out a control experiment using the solvent alone.

Mouse = assay: Toxic effect on mouse, intravenous; assay type: in vivo; details: 65 μmol/kg intravenous
Source text: The toxicity of the compounds of the present invention was investigated.

[3] = 8 μmol/kg oral, 50 min after administration
[4] = 1 μmol/kg intravenous, 3 min after administration
[5] = 0.5 μmol/kg intravenous, 3 min after administration

Compound	Inhibition (rate), stimulation of NK-2 receptors (NK-2 receptors [1]; 0.6 μmol/kg intravenous, 3 min after administration) [%]	Inhibition (rate), stimulation of NK-2 receptors (NK-2 receptors [1]; [3]) [%]	IC50 (NK-2 receptors [2]) [nM]	Inhibition (rate), stimulation of NK-2 receptors (NK-2 receptors [1]; [4]) [%]	Inhibition (rate), stimulation of NK-2 receptors (NK-2 receptors [1]; [5]) [%]	Inhibition (rate), stimulation of NK-2 receptors (NK-2 receptors [1]; 5 μmol/kg in duodenum, 50 min after administration) [%]	Toxicity (Mouse)
CN(CC(CCN1CCc2nc3ccccc3c(C(N)=O)c2C1)c1ccc(Cl)c(Cl)c1)C(=O)c1ccccc1 (single isomer, unassigned) [Example 29, 2-[(-)-4-(N-benzoyl-N-methyl)amino-3-(3,4-dichlorophenyl)butyl]-1,2,3,4-tetrahydro-benzo-[b][1,6]naphthyridine-10-carboxamide fumarate]	100.0	43.5	59				
COC(=O)c1c2c(nc3ccccc13)CCN(CCC(CN(C)C(=O)c1ccccc1)c1ccc(Cl)c(Cl)c1)C2 (single isomer, unassigned) [Example 31, 2-[(-)-4-(N-benzoyl-N-methyl1amino-3-(3,4-dichlorophenyl)butyl]-10-methoxycarbonyl-1,2,3,4-tetrahydro-benzo[b][1,6]naphthyridine fumarate]		53.5	96	100.0			
CN(CC(CCN1CCc2nc3ccccc3c(C(=O)O)c2C1)c1ccc(Cl)c(Cl)c1)C(=O)c1ccccc1 (single isomer, unassigned) [Example 33, 2-[(-)-4-(N-benzoyl-N-methyl)amino-3-(3,4-dichlorophenyl)butyl]-1,2,3,4-tetrahydro-benzo-[b][1,6]naphthyridine-10-carboxylic acid fumarate]			94	57.5			
CN(CC(CCN1CCc2nc3ccccc3c(CO)c2C1)c1ccc(Cl)c(Cl)c1)C(=O)c1ccccc1 (single isomer, unassigned) [Example 37, 2-[(-)-4-(N-benzoyl-N-methyl)amino-3-(3,4-dichlorophenylbutyl]-10-hydroxymethyl-1,2,3,4-tetrahydro-benzo-[b][1,6]naphthyridine fumarate]			90	97.5			
COC(=O)N(C)c1c2c(nc3ccccc13)CCN(CCC(CN(C)C(=O)c1ccccc1)c1ccc(Cl)c(Cl)c1)C2 (single isomer, unassigned) [Example 43, 2-[(-)-4-(N-benzoyl-N-methyl)amino-3-(3,4-dichlorophenyl)butyl]-10-(N-methyl-N-methoxycarbonyl)-amino-1,2,3,4-tetrahydro-benzo[b][1,6]naphthyridine fumarate]			66		86.2		
COC(=O)Nc1c2c(nc3ccccc13)CCN(CCC(CN(C)C(=O)c1ccccc1)c1ccc(Cl)c(Cl)c1)C2 (single isomer, unassigned) [Example 41, 2-[(-)-4-(N-benzoyl-N-methyl)amino-3-(3,4-dichlorophenyl)butyl]-10-methoxycarbonylamino-1,2,3,4-tetrahydro-benzo[b][1,6]naphthyridine fumarate]			30		97.0	62.0	
CN(CC(CCN1CCc2nc3ccccc3c(-c3ccccc3)c2C1)c1ccc(Cl)c(Cl)c1)C(=O)c1ccccc1 (single isomer, unassigned) [Example 39, 2-[(-)-4-(N-benzoyl-N-methyl)amino-3-(3,4-dichlorophenyl)butyl]-10-phenyl-1,2,3,4-tetrahydro-benzo[b][1,6]naphthyridine fumarate]			70		70.0		
CC(=O)Nc1c2c(nc3ccccc13)CCN(CCC(CN(C)C(=O)c1ccccc1)c1ccc(Cl)c(Cl)c1)C2 (single isomer, unassigned) [Example 27, 2-[(-)-4-(N-benzoyl-N-methyl)amino-3-(3-4-dichlorophenylbutyl]-10-methylcarbonylamino-1,2,3,4-tetrahydro-benzo[b][1,6]naphthyridine fumarate]		81.5	18		100.0		None

Source: patent US6294547A, “Naphthyridine deratives or salts thereof” (Nippon Kayaku Kabushiki Kaisha, priority 1997, dated 2001)
